Test results from patent US20240140941A1, “DERIVATIVE OF 2,5-DIKETOPIPERAZINE COMPOUND, AND PREPARATION METHOD THEREFOR, PHARMACEUTICAL COMPOSITION THEREOF AND USE THEREOF” (DALIAN WZ PROBIOTICS AD HEALTH CO., LTD, priority 2020, published 2024).
Structures can show the parent of a compound that is named as a salt. Where two headings read alike, the source gives them in different places. Values belong to the compound of their own block, whether it stands above or below them.

How the values were obtained:
NCI-H460 = assay: Inhibition test on cell proliferation (MTT), NCI-H460; type: cell-based, human
Method: (§1) Tumor cells (NCI-H460, BxPC-3, HT-29, HCC-LM3) in the logarithmic growth phase were digested, centrifuged, and the supernatants were removed. Cells were resuspended by adding fresh culture medium, and counted using a cell counting plate. 100 μL of culture medium (containing cells) was added to a 96-well plate according to the standard of 2000 to 6000 cells per well and incubated in an incubator (37° C., 5% CO2) for 24 hours. After the cells were completely adhered to the wall, the test sample and Plinabulin were diluted to different concentrations using fresh culture medium, and 4 wells were set for each concentration. After 72 hours of drug treatment, the culture medium was removed, and 20 μL of MTT at a concentration of 5 mg/mL was added to each well. After 3-4 hours in the incubator, the MTT was discarded, and 100 μL of DMSO was added to each well, and placed in a 96-well plate shaker to completely dissolve the purple formazan. Subsequently, the absorbance (OD value) was detected at a wavelength of 490 nm using a microplate reader. The experiment also required setting up zero-setting wells (blank culture medium, MTT, DMSO). Cell inhibition rate=1−(OD value of drug-dosed group−OD value of zero-setting group)/(OD value of blank group−OD value of zero-setting group)×100%.

BxPC-3 = assay: Inhibition test on cell proliferation (MTT), BxPC-3; type: cell-based, human; conditions: read-out: IC50 (nM) BxPC-3
Method: as §1

HCC-LM3 = assay: Inhibition test on cell proliferation (MTT), HCC-LM3; type: cell-based, human; conditions: read-out: IC50 (nM) HCC-LM3
Method: as §1

HT-29 = assay: Inhibition test on cell proliferation (MTT), HT-29; type: cell-based, human; conditions: 72 hours of drug treatment
Method: as §1

[1] = Homo sapiens, NCI-H460, 72 h, 72 hours of drug treatment, MTT, read-out: IC50 (nM) NCI-H460
[2] = Homo sapiens, BXPC-3, 72 h, 72 hours of drug treatment, MTT
[3] = 72 hours of drug treatment, MTT, mesylate
[4] = Homo sapiens, HCCLM3, 72 h, 72 hours of drug treatment, MTT
[5] = 72 hours of drug treatment, MTT, mesylate, read-out: IC50 (nM) NCI-H460
[6] = 72 hours of drug treatment, MTT, hydrochloride, read-out: IC50 (nM) NCI-H460
[7] = 72 hours of drug treatment, MTT, hydrochloride

melting point: 173 to 175 °C
Compound: CC(C)c1c(/C=c2\[nH]c(=O)/c(=C/c3cccc(Oc4ccc(F)cc4)c3)[nH]c2=O)ncn1CCCN1CCOCC1 (as salt: hydrochloride) [PLN-2-2-1]

melting point: 220 to 222 °C
Compound: CC(C)c1c(/C=c2\[nH]c(=O)/c(=C/c3ccccc3)[nH]c2=O)ncn1CCCN1CCOCC1 (as salt: hydrochloride) [PLN-2-5-1, (3Z,6Z)-3-Benzylidene-6-((5-isopropyl-1-(3-morpholinyl)propylimidazol-4-yl)methylene)piperazine-2,5-dione, hydrochloride]

IC50 (NCI-H460; [1]): 1.95 ± 0.08 nM | IC50 (BxPC-3; [2]): 1.33 ± 0.19 nM | IC50 (HCC-LM3; [3]): 1.85 ± 0.27 nM | IC50 (HT-29; Homo sapiens, HT-29, 72 h): 1.42 ± 0.46 nM
Compound: CC(C)c1c(/C=c2\[nH]c(=O)/c(=C/c3cccc(C(=O)c4ccc(F)cc4)c3)[nH]c2=O)ncn1CCCN1CCOCC1 [PLN-2-1-2, (3Z,6Z)-3-(3-(p-Fluorobenzoyl)phenyl)methylene-6-((5-isopropyl-1-(3-morpholinyl)propylimidazol-4-yl)methylene)piperazine-2,5-dione, mesylate]

IC50 (NCI-H460; [1]): 33.5 ± 0.46 nM | IC50 (BxPC-3; [2]): 27.7 ± 0.94 nM | IC50 (HCC-LM3; [4]): 16.6 ± 0.66 nM | IC50 (HT-29; Homo sapiens, HT-29, 72 h): 25.3 ± 3.54 nM
Compound: O=c1[nH]/c(=C\c2ncn(CCCN3CCOCC3)c2C2CC2)c(=O)[nH]/c1=C\c1ccccc1 [PLN-2-6, (3Z,6Z)-3-benzylidene-6-((5-cyclopropyl-1-(−3-morpholinyl)propylimidazol-4-yl)methylene)piperazine-2,5-dione]

IC50 (NCI-H460; [1]): 15.2 ± 2.82 nM | IC50 (BxPC-3; [2]): 8.8 ± 0.16 nM | IC50 (HT-29; Homo sapiens, HT-29, 72 h): 13.4 ± 2.08 nM
Compound: O=c1[nH]/c(=C\c2ncn(CCCN3CCOCC3)c2C2CC2)c(=O)[nH]/c1=C\c1cc(F)ccc1F [PLN-2-8, (3Z,6Z)-3-(2,5-difluorophenyl)methylene-6-((5-cyclopropyl-1-(−3-morpholinyl)propylimidazol-4-yl)methylene)piperazine-2,5-dione]

IC50 (NCI-H460; [5]): 8.49 ± 0.72 nM | IC50 (BxPC-3; [3]): 5.14 ± 0.52 nM | IC50 (HCC-LM3; [3]): 6.08 ± 0.51 nM | IC50 (HT-29; mesylate): 5.84 ± 1.66 nM
Compound: CC(C)c1c(/C=c2\[nH]c(=O)/c(=C/c3cccc(F)c3)[nH]c2=O)ncn1CCCN1CCOCC1 [PLN-2-9-2, mesylate]

IC50 (NCI-H460; [5]): 11.2 ± 2.04 nM | IC50 (BxPC-3; [3]): 12.6 ± 0.96 nM | IC50 (HCC-LM3; [3]): 13.3 ± 4.02 nM | IC50 (HT-29; mesylate): 13.2 ± 2.15 nM
Compound: O=c1[nH]/c(=C\c2ncn(CCCN3CCOCC3)c2C2CC2)c(=O)[nH]/c1=C\c1cccc(F)c1 [PLN-2-10-2, (3Z,6Z)-3-(3-Fluorophenyl)methylene-6-((5-cyclopropyl-1-(3-morpholinyl)propylimidazol-4-yl)methylene)piperazine-2,5-dione, mesylate]

IC50 (NCI-H460; [1]): 25.6 ± 9.64 nM | IC50 (BxPC-3; [2]): 5.92 ± 3.74 nM | IC50 (HT-29; Homo sapiens, HT-29, 72 h): 11.1 ± 1.87 nM
Compound: CC(C)c1c(/C=c2\[nH]c(=O)/c(=C/c3cccc(C(=O)c4ccc(F)cc4)c3)[nH]c2=O)ncn1CCCN1CCNCC1 [PLN-2-16, (3Z,6Z)-3-(3-(p-fluorobenzoyl)phenyl)methylene-6-((5-isopropyl-1-(3-piperazinyl)propylimidazol-4-yl)methylene)piperazine-2,5-dione]

IC50 (NCI-H460; [1]): 23.9 ± 1.02 nM | IC50 (BxPC-3; [2]): 15.3 ± 1.83 nM | IC50 (HT-29; Homo sapiens, HT-29, 72 h): 13.8 ± 3.08 nM
Compound: CC(C)c1c(/C=c2\[nH]c(=O)/c(=C/c3cccc(C(=O)c4ccc(F)cc4)c3)[nH]c2=O)ncn1CCCN1CCN(C)CC1 [PLN-2-21, (3Z,6Z)-3-(3-(p-fluorobenzoyl)phenyl)methylene-6-((5-isopropyl-1-(3-N-methylpiperazinyl)propylimidazol-4-yl)methylene)piperazine-2,5-dione]

IC50 (NCI-H460; [1]): 4.31 ± 0.59 nM | IC50 (BxPC-3; [2]): 2.25 ± 1.22 nM | IC50 (HT-29; Homo sapiens, HT-29, 72 h): 2.97 ± 0.51 nM
Compound: CC(C)c1c(/C=c2\[nH]c(=O)/c(=C/c3cccc(C(=O)c4ccc(F)cc4)c3)[nH]c2=O)ncn1CCCN1CCN(C(=O)C2CCC2)CC1 [PLN-2-36, (3Z,6Z)-3-(3-(p-fluorobenzoyl)phenyl)methylene-6-((5-isopropyl-1-(3-N-cyclobutanoylpiperazinyl)propylimidazol-4-yl)methylene)piperazine-2,5-dione]

IC50 (NCI-H460; [1]): 21.6 ± 0.52 nM | IC50 (BxPC-3; [2]): 9.09 ± 0.89 nM
Compound: CC(C)c1c(/C=c2\[nH]c(=O)/c(=C/c3cccc(C(=O)c4ccc(F)cc4)c3)[nH]c2=O)ncn1CCCN1CCN(C(=O)NC2CCCC2)CC1 [PLN-2-46, (3Z,6Z)-3-(3-(p-fluorobenzoyl)phenyl)methylene-6-((5-isopropyl-1-(3-N-cyclopentylaminocarbonylpiperazinyl)propylimidazol-4-yl)methylene)piperazine-2,5-dione]

IC50 (NCI-H460; [1]): 6.56 ± 0.32 nM | IC50 (BxPC-3; [2]): 3.62 ± 0.48 nM
Compound: CC(C)c1c(/C=c2\[nH]c(=O)/c(=C/c3cccc(C(=O)c4ccc(F)cc4)c3)[nH]c2=O)ncn1CCCN1CCN(C(=O)NC2CCCCC2)CC1 [PLN-2-47, (3Z,6Z)-3-(3-(p-fluorobenzoyl)phenyl)methylene-6-((5-isopropyl-1-(3-N-cyclohexylaminocarbonylpiperazinyl)propylimidazol-4-yl)methylene)piperazine-2,5-dione]

IC50 (NCI-H460; [1]): 39.2 ± 1.85 nM | IC50 (BxPC-3; [2]): 33.1 ± 0.98 nM
Compound: CC(C)c1c(/C=c2\[nH]c(=O)/c(=C/c3cc(F)ccc3F)[nH]c2=O)ncn1CCCN1CCN(C(=O)OC(C)(C)C)CC1 [PLN-2-48]

IC50 (NCI-H460; [6]): 7.69 ± 0.28 nM | IC50 (BxPC-3; [7]): 4.99 ± 0.19 nM | IC50 (HCC-LM3; [7]): 4.72 ± 0.73 nM | IC50 (HT-29; hydrochloride): 4.43 ± 0.13 nM
Compound: CC(C)c1c(/C=c2\[nH]c(=O)/c(=C/c3cccc(F)c3)[nH]c2=O)ncn1CCCN1CCO[C@H](C)C1 [PLN-2-56-1, (3Z,6Z)-3-(3-Fluorophenyl)methylene-6-(5-isopropyl-1-(3-(R)-(2-methylmorpholinyl)propylimidazol-4-yl)methylene)piperazine-2,5-dione, hydrochloride]

IC50 (NCI-H460; [6]): 17.5 ± 0.71 nM | IC50 (BxPC-3; [7]): 14.1 ± 1.23 nM | IC50 (HCC-LM3; [7]): 12.9 ± 1.61 nM | IC50 (HT-29; hydrochloride): 10.6 ± 3.68 nM
Compound: CC(C)c1c(/C=c2\[nH]c(=O)/c(=C/c3cccc(F)c3)[nH]c2=O)ncn1CCCN1CCO[C@@H](C)C1 [PLN-2-57-1, (3Z,6Z)-3-(3-Fluorophenyl)methylene-6-(5-isopropyl-1-(3-S)—(−2-methylmorpholinyl)propylimidazol-4-yl)methylene)piperazine-2,5-dione, hydrochloride]

IC50 (NCI-H460; [5]): 4.6 ± 1.33 nM | IC50 (BxPC-3; [3]): 3.66 ± 1.15 nM | IC50 (HCC-LM3; [3]): 3.99 ± 0.08 nM | IC50 (HT-29; mesylate): 3.55 ± 0.04 nM
Compound: CC(C)c1c(/C=c2\[nH]c(=O)/c(=C/c3cc(F)cc(F)c3)[nH]c2=O)ncn1CCCN1CCOCC1 [PLN-2-62-2, (3Z,6Z)-3-(3,5-Difluorophenyl)methylene-6-((5-isopropyl-1-(3-morpholinyl)propylimidazol-4-yl)methylene)piperazine-2,5-dione, mesylate]

IC50 (NCI-H460; [5]): 95.9 ± 3.66 nM | IC50 (BxPC-3; [3]): 50.9 ± 6.75 nM | IC50 (HCC-LM3; [3]): 69.5 ± 4.26 nM
Compound: CC(C)c1c(/C=c2\[nH]c(=O)/c(=C/c3ccc(F)c(F)c3)[nH]c2=O)ncn1CCCN1CCOCC1 [PLN-2-63-2, (3Z,6Z)-3-(3,4-Difluorophenyl)methylene-6-((5-isopropyl-1-(3-morpholinyl)propylimidazol-4-yl)methylene)piperazine-2,5-dione, mesylate]

IC50 (NCI-H460; [1]): 18.5 ± 0.3 nM | IC50 (BxPC-3; [2]): 7.7 ± 0.39 nM | IC50 (HCC-LM3; [4]): 26.1 ± 2.14 nM
Compound: CC(=O)N1CCN(CCCn2cnc(/C=c3\[nH]c(=O)/c(=C/c4cccc(F)c4)[nH]c3=O)c2C(C)C)CC1 [PLN-2-64, (3Z,6Z)-3-(3-Fluorophenyl)methylene-6-(5-isopropyl-1-(3-(4-(acetyl)piperazinyl)propylimidazol-4-yl)methylene)piperazine-2,5-dione]

IC50 (NCI-H460; [1]): 17.4 ± 1.45 nM | IC50 (BxPC-3; [2]): 10.3 ± 2.18 nM | IC50 (HCC-LM3; [4]): 20.9 ± 0.97 nM
Compound: CCC(=O)N1CCN(CCCn2cnc(/C=c3\[nH]c(=O)/c(=C/c4cccc(F)c4)[nH]c3=O)c2C(C)C)CC1 [PLN-2-65, (3Z,6Z)-3-(3-Fluorophenyl)methylene-6-(5-isopropyl-1-(3-(4-(propionyl)piperazinyl)propylimidazol-4-yl)methylene)piperazine-2,5-dione]

Compound: CCCC(=O)N1CCN(CCCn2cnc(/C=c3\[nH]c(=O)/c(=C/c4cccc(F)c4)[nH]c3=O)c2C(C)C)CC1 [PLN-2-66, (3Z,6Z)-3-(3-Fluorophenyl)methylene-6-(5-isopropyl-1-(3-(4-(n-butyryl)piperazinyl)propylimidazol-4-yl)methylene)piperazine-2,5-dione]
IC50 (NCI-H460; Homo sapiens, NCI-H460, 72 h, read-out: IC50 (nM) NCI-H460, 72 hours of drug treatment, MTT): 40.3 ± 3.72 nM | IC50 (BxPC-3; Homo sapiens, BXPC-3, 72 h): 30.4 ± 0.35 nM | IC50 (HCC-LM3; Homo sapiens, HCCLM3, 72 h): 43.9 ± 7.94 nM

IC50 (NCI-H460; [1]): 8.39 ± 0.58 nM | IC50 (BxPC-3; [2]): 3.73 ± 0.06 nM | IC50 (HCC-LM3; [4]): 7.7 ± 0.04 nM
Compound: CC(CN1CCOCC1)Cn1cnc(/C=c2\[nH]c(=O)/c(=C/c3cccc(F)c3)[nH]c2=O)c1C(C)C (stereo not drawn) [PLN-2-67, (3Z,6Z)-3-(3-Fluorophenyl)methylene-6-((5-isopropyl-1-(3-morpholinyl)-2-methylpropylimidazol-4-yl)methylene)piperazine-2,5-dione]
